From a compilation of properties of binary mixtures (doi:10.1016/j.fluid.2022.113414)

Assay: xn = mol fraction of the nth substance listed
Conditions: 101.3 kPa

CC(=O)[O-].CN1CCCN2CCC[NH+]=C12 + O
viscosity [mPa·s]
Conditions	x1 = 0.103	x1 = 0.206	x1 = 0.301	x1 = 0.405	x1 = 0.494	x1 = 0.604
278.2 K	46	329	945	–	2689	3358
283.2 K	–	–	554	1023.1	–	1825.2
288.2 K	24.1	131.4	340	609	873	1046.1
293.2 K	18.1	87.9	217.7	–	533	629
298.2 K	13.9	61.2	–	244.9	–	396
303.2 K	10.9	43.9	–	164.9	224.5	–
308.2 K	8.77	–	–	114.8	153.9	176.1
313.2 K	7.19	24.72	–	82.4	–	123.6
318.2 K	5.94	19.23	–	60.6	–	89.4
323.2 K	4.99	15.23	30	45.8	59.3	–
328.2 K	4.24	12.3	23.57	35.39	45.37	50.43
333.2 K	3.65	–	18.81	27.89	35.43	39.17
338.2 K	3.15	8.44	15.29	22.37	–	31.03
343.2 K	–	7.12	12.65	18.24	22.81	25.01
348.2 K	2.45	6.08	10.59	15.11	18.74	20.47
353.2 K	2.19	5.25	–	12.66	15.61	16.99
358.2 K	–	–	7.69	10.74	13.17	–
363.2 K	1.78	4	6.66	9.21	11.24	–
368.2 K	–	3.54	5.83	7.98	9.68	–
373.2 K	–	3.17	–	6.97	8.42	–
